Assay results reported in article PMC11955804, “Histidine-rich enantiomeric peptide coacervates enhance antigen sequestration and presentation to T cells” (Chemical Science, 2025).

Assays:
[1] = Dynamic light scattering (DLS) droplet size; type: physicochemical; settings: 1 mM peptide, 1× PBS, pH 7.4; mean of 3 measurements with 14 scans each; identical for each pair of enantiomers
Protocol: Optical microscopy and dynamic light scattering (DLS) […]
Coacervate size was measured using 1 mM
peptide solutions (1×PBS, pH 7.4) on a ZEN 3600 Zetasizer (Malvern Instruments, UK) using
DLS-Zen 0040 specialized cuvettes. The results were reported as the means of three
measurements, with 14 scans for each measurement. […]

[2] = tested on: CD55 expression in A549 cells; assay: CRISPR/Cas9 RNP delivery, CD55 knockdown by flow cytometry; type: cell-based; settings: 3 days, enantiomeric coacervates
Protocol: complexed with lipofectamine 2000 (3.2 µL) served as controls. GFP expression was assessed qualitatively after 96 h using a Lionheart FX automated microscope (BioTek Instruments, Inc.).
We employed TrueCut Cas9 protein for the knockout of CD55 gene using CRISPR technology, aided with chiral (GHGXY)4 peptide coacervates. The transfection of the Cas9 RNPs (protein + gRNA) was done according to manufacturer’s protocol (Invitrogen). Briefly, A549 cells were cultured in complete DMEM media (supplemented with 10% FBS and 5% Pen Strep) in T-75 flask till full confluency. Cells were then plated at a concentration of 2×10^4 cells/mL in 24 well […]
plates in DMEM media for 24 h. […]
confluent. For positive control, we mixed the TrueCutTM Cas9 protein/sgRNA in Opti-MEM media (17.8 μL) at a concentration of 12.50 μg (75 pmol; Stock 0.5 mg/mL) and 2.4 μg (75 pmol; Stock 1 nmol) for protein and sgRNA respectively, containing 50 μL LipofectamineTM Cas 9 PlusTM reagent (Total Volume: 100 μL) in a RNAse -free microcentrifuge tube. […]
(DAF) Antibody (anti-human; miltenyibiotec Cat#130-126-382). […] Data were analyzed with FlowJo version 10. […] was quantified as the percentage CD55+ cells, considering untreated cells as the negative control and Lipofectamine treated ones as the positive control. […]

hiPSC-CMs = assay: Confocal microscopy of cellular uptake in hiPSC-CMs; type: cell-based, human; settings: for interaction with the cell membrane of hiPSC-CMs: confocal microscopy; for cellular uptake / localization in hiPSC-CMs: eGFP loaded coacervates (100 nM eGFP), 30 min, 37 °C, confocal
Protocol: Stem cell-derived cardiomyocytes and confocal microscopy
Wild type hiPSCs (WT iPSC 11) were received from the Genome Engineering and Stem Cell Center at Washington University School of Medicine. hiPSCs were cultured in mTeSR Plus […]
medium ([…] Technologies, USA) on 6-well plates coated with Matrigel (1:100, Corning) and grown at 37 °C with 5% CO2. Cells were grown to 80–90% confluency and then passaged as clusters using Versene (Thermo Scientific, USA) into 6-well plates for hiPSC maintenance and […]
into 24-well plates for hiPSC differentiation. Once hiPSCs reached 90% confluence, they were differentiated into cardiomyocytes using small-molecule manipulation of Wnt signaling 10. Non-cardiomyocytes were removed via lactate purification on days 20 and 22 before replating singularized hiPSC cardiomyocytes (hiPSC-CMs) at 40,000 cells per 35-mm glass-bottom dish. hiPSC-CMs were treated with enantiomeric leucine or valine coacervates loaded with eGFP protein (Novus Biologicals, Catalog number: NBP2-34923; 50 μL, final concentration of 100 nM eGFP) for 30 min at 37°C. Samples were fixed with 2% paraformaldehyde (PFA) and three PBS washes (10 min at RT). The cell membrane was stained with wheat germ agglutinin (WGA; Fisher Scientific, Catalog number: W32466; 0.25 μL/mL) conjugated to Alexa Fluor 647 (10 min at RT), followed by three PBS washes (5 minutes at RT). Confocal micrographs of singular hiPSC-CMs were acquired using a Leica Sp8 Lightning single-photon confocal microscope […]
numerical aperture oil immersion objective, two HyD GaAsP detectors, and two high-sensitivity photomultiplier tube detectors. Images were collected as z-stacks (presented as top or bottom view, and single plane) and by Nyquist sampling (or greater) as previously described 11.
All animal experiments were conducted under approved protocols by the Institutional Animal Care and Use Committee (IACUC) at Washington University in St Louis. Femoral and tibial bone marrow from C57BL/6 mice were collected and RBCs lysed using ACK buffer. The cells were plated at 5×10^6 cells per petri dish (150 mm) and differentiated for 7–9 days in complete RPMI-1640 medium (containing 10% heat-inactivated FBS), 55 µM β-mercaptoethanol, 1 mM sodium pyruvate, 10 mM HEPES, 1× MEM non-essential amino acids, 20 ng/mL GM-CSF, 10

| droplet size (DLS) [1] | Substance | delivery of Cas9 RNP complex / decrease in CD55 expression on the cell surface [2] | interaction with the cell membrane of hiPSC-CMs (hiPSC-CMs) | cellular uptake / localization in hiPSC-CMs (hiPSC-CMs) |
| --- | --- | --- | --- | --- |
| ~1.8 μm | (GHGLY)4 [GL 20] | not highly effective | interacted with and traversed the cell membrane | confirmed their localization within the cells |
| ~1.0 μm | (GHGVY)4 [GV 20] | successfully delivered the RNP complex | this behavior was not observed | confirmed their localization within the cells |
